Experimental findings from PMC4877957 (BMC Microbiology, 2016) are described below.

The target in one assay is T1, RoxAXsp (Xanthomonas sp. 35Y, UniProt Q7X0P3).
T1 construct: gene roxA; purified as described previously; c-type dihaem
The assay is described as follows: HPLC of polyisoprene cleavage products. In kind it is biochemical. As to conditions: poly(cis-1,4-isoprene) latex, oxygen; 23 °C.

Another assay addresses T2, LcpRr (Rhodococcus rhodochrous, UniProt A0A165QBG6).
T2 sequence (A0A165QBG6 31-408): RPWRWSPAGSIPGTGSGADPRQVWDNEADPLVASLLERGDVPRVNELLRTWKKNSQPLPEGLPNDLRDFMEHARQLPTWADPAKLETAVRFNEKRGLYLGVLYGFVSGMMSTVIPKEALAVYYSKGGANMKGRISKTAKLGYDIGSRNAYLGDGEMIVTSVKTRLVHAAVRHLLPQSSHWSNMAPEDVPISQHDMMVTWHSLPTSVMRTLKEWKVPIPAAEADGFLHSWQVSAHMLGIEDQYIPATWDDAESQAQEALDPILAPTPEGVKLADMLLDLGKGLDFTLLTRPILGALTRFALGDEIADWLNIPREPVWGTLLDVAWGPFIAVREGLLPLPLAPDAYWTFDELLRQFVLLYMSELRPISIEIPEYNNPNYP
The assay can be described thus: HPLC product assay (C35 peak), polyisoprene latex. As to conditions: read-out: % inhibition at 1 mM.

Broadly, the inhibition is the share of the control response that was lost under treatment.

T1 sequence (Q7X0P3 entry or part of it): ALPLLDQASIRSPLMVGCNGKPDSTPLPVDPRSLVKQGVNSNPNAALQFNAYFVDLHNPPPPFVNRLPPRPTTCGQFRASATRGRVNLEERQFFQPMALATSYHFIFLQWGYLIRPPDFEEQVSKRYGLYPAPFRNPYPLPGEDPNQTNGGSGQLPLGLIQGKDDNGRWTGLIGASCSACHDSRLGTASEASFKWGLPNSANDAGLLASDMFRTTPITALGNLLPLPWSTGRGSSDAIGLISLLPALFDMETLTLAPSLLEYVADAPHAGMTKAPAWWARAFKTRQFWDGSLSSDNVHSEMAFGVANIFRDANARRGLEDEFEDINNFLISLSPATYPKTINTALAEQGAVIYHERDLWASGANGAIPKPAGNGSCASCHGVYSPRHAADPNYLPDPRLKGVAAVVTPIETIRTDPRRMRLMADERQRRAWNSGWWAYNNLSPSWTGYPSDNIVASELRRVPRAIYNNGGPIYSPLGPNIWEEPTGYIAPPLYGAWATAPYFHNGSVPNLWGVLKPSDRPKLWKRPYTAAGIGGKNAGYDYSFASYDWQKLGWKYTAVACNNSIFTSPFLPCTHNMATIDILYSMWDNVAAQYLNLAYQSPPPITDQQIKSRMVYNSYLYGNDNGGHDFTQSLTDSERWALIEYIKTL

Take `CC(=O)CCC=C(C)CCC=C(C)CCC=O` [ODTD, 12-oxo-4,8-dimethyl-trideca-4,8-diene-1-al]: the “HPLC of polyisoprene cleavage products” value at RoxAXsp is “ODTD was the main cleavage product of RoxAXsp”.

For the molecule `CCN(CC)C(=S)S` [diethyl dithiocarbamate], the inhibition at 1000 µM on LcpRr was determined as 82%.
